{"source": "patent US7662789B2", "about": "“Peptide substance restoring myocardium function” (“Access Bioscience” CJSC, priority 2004, dated 2010)", "key": {"male guinea pigs": {"system": "male guinea pigs", "assay": "Chronic toxicity, 6 months intramuscular in guinea pigs", "experimental": "Common toxicity of Ala-Glu-Asp-Arg (SEQ ID NO:1) tetrapeptide was studied in compliance with the requirements stated in “Manual for experimental (pre-clinical) study of new pharmaceutical substances” (2000): acute toxicity in case of single administration of the substance, as well as sub-acute and chronic toxicity in case of long-term administration of the tetrapeptide.\nThe studies of chronic toxicity were conducted for 6 months, basing on the duration of the recommended clinical administration of the preparation, on 96 male guinea pigs with body weight of 300-340 g. The experimental animals received the tetrapeptide daily, once a day, intramuscularly, for 6 months in the doses of 1 μg/kg, 0.1 mg/kg and 1 mg/kg in 0.5 ml of 0.9% NaCl solution. The control animals received 0.9% NaCl solution in the same volume and by the same schedule. Common methods were used for the identification of the quantity of erythrocytes, hemoglobin, reticulocytes, thrombocytes, leukocytes, as well as of the leukocyte formula, erythrocyte sedimentation rate (ESR) and erythrocyte resistance in the peripheric blood of the animals. Alongside with this general protein content in the blood serum was estimated by Lowry's method, as well as of potassium and sodium using the method of plasma spectrophotometry. After the completion of the experiment the pathomorphological study of the brain and spinal cord, spinal cord ganglia, thyroid gland, parathyroid glands, adrenal glands, testis, pituitary gland, heart, lungs, aorta, liver, kidney, urinary bladder, pancreas, stomach, small intestine, large intestine, thymus, spleen, lymph nodes and bone marrow was conducted."}, "white mongrel male mice": {"system": "white mongrel male mice", "assay": "Acute toxicity, single intramuscular administration in mice", "type": "in vivo", "conditions": "single i.m. 1-5 mg/kg; dose 5000 times exceeding the therapeutic one", "experimental": "The experiment aimed at the study of acute toxicity was conducted on 66 white mongrel male mice with body weight of 20-23 g. The animals were randomly subdivided into 6 equal groups. The substance was administered once, intramuscularly, in 0.25 ml volume, in the doses of 1 mg/kg, 2 mg/kg, 3 mg/kg, 4 mg/kg and 5 mg/kg in sterile 0.9% NaCl solution. The control animals received 0.9% NaCl solution."}, "[1]": {"system": "rat myocardium, TMTD poisoning", "assay": "Toxicochemical myocardiopathy by tetramethyl thiuram disulfide (TMTD) poisoning in rats", "type": "in vivo", "experimental": "The experiment was conducted on 40 white mongrel rats with body weight of 220-230 g. The animals were randomly subdivided into four groups. The intoxication of animals with tetramethyl thiuram disulfide (TMTD) industrial poison was conducted in the form of 20-day course of 5% oil TMTD solution administration in the dose of 25 mg/kg intragastrically. The tetrapeptide was administered during the last 10 days of the experiment intramuscularly in the dose of 0.05 μg per animals in sterile 0.9% NaCl solution. Upon expiry of the indicated terms both the control and experimental animals were killed by momentary decapitation. Myocardium fragments were fixed by 12% formalin solution. Paraphin slices were stained by hematoxylin-eosine, as well as by Van Gison, Brachet, with sudan III, IV. Intact animals served as the control."}, "[2]": {"system": "adrenalin dystrophy in rat myocardium", "assay": "Adrenalin dystrophy in rat myocardium", "type": "in vivo, rats", "conditions": "for Diene conjugates content / Malon dialdegide content: 24 hours", "experimental": "The experiment was conducted on 30 white mongrel rats with body weight of 180-200 g. The animals were randomly subdivided into three groups, each consisting of 10 animals. Adrenalin dystrophy was induced by administering the fresh adrenalin solution (“Serva”, USA) intraperitoneally in the dose of 2 mg/kg. The control animals received 0.9% NaCl solution. Then the experimental animals were in 1 and 5 hours treated with Ala-Glu-Asp-Arg (SEQ ID NO:1) tetrapeptide in the dose of 0.05 μg per animal in sterile 0.9% NaCl solution. In 4 hours since the beginning of the experiment cardiac muscle bioptates weighing approximately 10 mg were taken for the identification of cardiac dehydrogenases activity and glycogen content in the myocardium. In 24 hours the animals were killed by momentary decapitation. Left ventricle fragments were frozen in […]. In cryostatic slices the activity of succinatedehydrogenase (SDH) was histochemically identified, as well as of NADN-dehydrogenase (NADN-DH), lactatedehydrogenase and glycogen content."}, "[3]": {"conditions": "TMTD 25 mg/kg 20 days + tetrapeptide 0.05 μg per animal i.m. last 10 days"}, "[4]": {"conditions": "intact animals, 0.05 μg per animal i.m. 10 days"}, "[5]": {"conditions": "adrenalin + 0.05 μg per animal, liver"}, "[6]": {"conditions": "adrenalin + tetrapeptide, 4 hours"}}, "note": "Marks after values point to notes of the source that are not given here. Where a SMILES comes first, the peptide text is derived from it.", "data": [{"smiles": "C[C@H](N)C(=O)N[C@@H](CCC(=O)O)C(=O)N[C@@H](CC(=O)O)C(=O)N[C@@H](CCCNC(=N)N)C(=O)O", "note": "[Tetrapeptide, L-alanyl-L-glutamyl-L-aspartyl-L-arginine] (H-AEDR-OH)", "values": [{"measurement": "Basophils", "setting": "male guinea pigs; 1 μg/kg, 3 months", "result": "0.69 ± 0.05", "unit": "%"}, {"measurement": "ESR", "setting": "male guinea pigs; 1 μg/kg, 3 months", "result": "1.87 ± 0.07", "unit": "mm/hour"}, {"measurement": "Eosinophils", "setting": "male guinea pigs; 1 μg/kg, 3 months", "result": "0.64 ± 0.04", "unit": "%"}, {"measurement": "Erythrocyte resistance, minimum", "setting": "male guinea pigs; 1 μg/kg, 3 months", "result": "0.33 ± 0.02", "unit": "% NaCl"}, {"measurement": "Erythrocytes", "setting": "male guinea pigs; 1 μg/kg, 3 months", "result": "5.4 ± 0.2 ×10^12/l"}, {"measurement": "General protein in the blood serum", "setting": "male guinea pigs; 1 μg/kg, 3 months", "result": "72.6 ± 3.3", "unit": "g/L"}, {"measurement": "Hemoglobin", "setting": "male guinea pigs; 1 μg/kg, 3 months", "result": "13.8 ± 1.2"}, {"measurement": "Leukocytes", "setting": "male guinea pigs; 1 μg/kg, 3 months", "result": "11.2 ± 0.8 ×10^9/l"}, {"measurement": "Lymphocytes", "setting": "male guinea pigs; 1 μg/kg, 3 months", "result": "50.7 ± 2.4", "unit": "%"}, {"measurement": "Monocytes", "setting": "male guinea pigs; 1 μg/kg, 3 months", "result": "2.4 ± 0.03", "unit": "%"}, {"measurement": "Potassium in the blood serum", "setting": "male guinea pigs; 1 μg/kg, 3 months", "result": "5.3 ± 1.8", "unit": "mmol/L"}, {"measurement": "Reticulocytes", "setting": "male guinea pigs; 1 μg/kg, 3 months", "result": "1.2 ± 0.07", "unit": "%"}, {"measurement": "Segmented neutrophils", "setting": "male guinea pigs; 1 μg/kg, 3 months", "result": "44.9 ± 2.5", "unit": "%"}, {"measurement": "Sodium in the blood serum", "setting": "male guinea pigs; 1 μg/kg, 3 months", "result": "154.8 ± 6.8", "unit": "mmol/L"}, {"measurement": "Stab neutrophils", "setting": "male guinea pigs; 1 μg/kg, 3 months", "result": "0.27 ± 0.07", "unit": "%"}, {"measurement": "Thrombocytes", "setting": "male guinea pigs; 1 μg/kg, 3 months", "result": "143.6 ± 8.4 ×10^9/l"}, {"measurement": "Basophils", "setting": "male guinea pigs; 1 μg/kg, 6 months", "result": "0.71 ± 0.05", "unit": "%"}, {"measurement": "ESR", "setting": "male guinea pigs; 1 μg/kg, 6 months", "result": "2.05 ± 0.04", "unit": "mm/hour"}, {"measurement": "Eosinophils", "setting": "male guinea pigs; 1 μg/kg, 6 months", "result": "0.75 ± 0.08", "unit": "%"}, {"measurement": "Erythrocyte resistance, maximum", "setting": "male guinea pigs; 1 μg/kg, 6 months", "result": "0.44 ± 0.04", "unit": "% NaCl"}, {"measurement": "Erythrocyte resistance, minimum", "setting": "male guinea pigs; 1 μg/kg, 6 months", "result": "0.35 ± 0.05", "unit": "% NaCl"}, {"measurement": "Erythrocytes", "setting": "male guinea pigs; 1 μg/kg, 6 months", "result": "5.2 ± 0.4 ×10^12/l"}, {"measurement": "General protein in the blood serum", "setting": "male guinea pigs; 1 μg/kg, 6 months", "result": "73.1 ± 3.6", "unit": "g/L"}, {"measurement": "Hemoglobin", "setting": "male guinea pigs; 1 μg/kg, 6 months", "result": "14.2 ± 0.6"}, {"measurement": "Leukocytes", "setting": "male guinea pigs; 1 μg/kg, 6 months", "result": "11.9 ± 0.5 ×10^9/l"}, {"measurement": "Lymphocytes", "setting": "male guinea pigs; 1 μg/kg, 6 months", "result": "52.7 ± 2.2", "unit": "%"}, {"measurement": "Monocytes", "setting": "male guinea pigs; 1 μg/kg, 6 months", "result": "2.5 ± 0.05", "unit": "%"}, {"measurement": "Potassium in the blood serum", "setting": "male guinea pigs; 1 μg/kg, 6 months", "result": "5.4 ± 2.2", "unit": "mmol/L"}, {"measurement": "Reticulocytes", "setting": "male guinea pigs; 1 μg/kg, 6 months", "result": "1.3 ± 0.08", "unit": "%"}, {"measurement": "Segmented neutrophils", "setting": "male guinea pigs; 1 μg/kg, 6 months", "result": "43.4 ± 3.2", "unit": "%"}, {"measurement": "Sodium in the blood serum", "setting": "male guinea pigs; 1 μg/kg, 6 months", "result": "154.6 ± 6.9", "unit": "mmol/L"}, {"measurement": "Stab neutrophils", "setting": "male guinea pigs; 1 μg/kg, 6 months", "result": "0.36 ± 0.05", "unit": "%"}, {"measurement": "Thrombocytes", "setting": "male guinea pigs; 1 μg/kg, 6 months", "result": "144.9 ± 9.8 ×10^9/l"}, {"measurement": "Chronic toxicity, side effects", "setting": "male guinea pigs; 6 months i.m. daily, 1 μg/kg, 0.1 mg/kg, 1 mg/kg, 100-1000 times the therapeutic doses", "result": "absence of side effects"}, {"measurement": "General status, blood indices, internal organs, cardiovascular, respiratory, liver and kidney functions", "setting": "male guinea pigs; long-term administration", "result": "no pathologic changes"}, {"measurement": "Acute toxicity, toxic reactions", "setting": "white mongrel male mice", "result": "does not cause toxic reactions"}, {"measurement": "Cardiomyocyte nuclei volume", "setting": "[1]; [3]", "result": "365.4 ± 13.8** μm^3"}, {"measurement": "Nuclear-cytoplasmatic ratio", "setting": "[1]; [3]", "result": "0.28±0.03"}, {"measurement": "Parenchyma volume", "setting": "[1]; [3]", "result": "0.83 ± 0.02** cm^3/cm^3"}, {"measurement": "Stroma volume", "setting": "[1]; [3]", "result": "0.180±0.02", "unit": "cm^3/cm^3"}, {"measurement": "Vessels volume, Vcap/Vcmc", "setting": "[1]; [3]", "result": "0.07 ± 0.02", "unit": "Vcap/Vcmc"}, {"measurement": "Increase of the filling of the myocardium", "setting": "[1]; intact animals, versus control", "result": 11, "unit": "%"}, {"measurement": "Increase of the volume of cardiomyocytes' nuclei", "setting": "[1]; intact animals, versus control", "result": 14, "unit": "%"}, {"measurement": "Cardiomyocyte nuclei volume", "setting": "[1]; [4]", "result": "386.2 ± 2.1* μm^3"}, {"measurement": "Nuclear-cytoplasmatic ratio", "setting": "[1]; [4]", "result": "0.40 ± 0.04"}, {"measurement": "Parenchyma volume", "setting": "[1]; [4]", "result": "0.82 ± 0.04", "unit": "cm^3/cm^3"}, {"measurement": "Stroma volume", "setting": "[1]; [4]", "result": "0.159 ± 0.05", "unit": "cm^3/cm^3"}, {"measurement": "Vessels volume, Vcap/Vcmc", "setting": "[1]; [4]", "result": "0.08 ± 0.006", "unit": "Vcap/Vcmc"}, {"measurement": "Quantity of diene conjugates in the myocardium", "setting": "[2]; 24 hours after induction of dystrophy, control 176±24", "result": "110 ± 17", "unit": "nmol/g"}, {"measurement": "Diene conjugates content", "setting": "[2]; adrenalin 2 mg/kg i.p. + 0.05 μg per animal at 1 and 5 h, heart", "result": "110 ± 17 nmole/g of tissue"}, {"measurement": "Malon dialdegide content", "setting": "[2]; adrenalin + 0.05 μg per animal, heart", "result": "173 ± 25 nmole/g of tissue"}, {"measurement": "Diene conjugates content", "setting": "[2]; [5]", "result": "92 ± 11 nmole/g of tissue"}, {"measurement": "Malon dialdegide content", "setting": "[2]; [5]", "result": "270 ± 56 nmole/g of tissue"}, {"measurement": "Enzyme activity in the myocardium tissue: LDH", "setting": "[2]; [6]", "result": "0.154 ± 0.011", "unit": "rel. optical density unit"}, {"measurement": "Enzyme activity in the myocardium tissue: NADN-DH", "setting": "[2]; [6]", "result": "0.344 + 0.019 rel. optical density unit"}, {"measurement": "Enzyme activity in the myocardium tissue: SDH", "setting": "[2]; [6]", "result": "0.284 ± 0.013", "unit": "rel. optical density unit"}, {"measurement": "Glycogen content", "setting": "[2]; adrenalin + tetrapeptide, myocardium, 4 hours", "result": "0.168±0.021", "unit": "rel. optical density unit"}]}]}
